Data taken from ChEMBL document CHEMBL1201862, “PubChem BioAssay data set” (2004).
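How tested: cells in 96-well plates exposed to compound for 48 hours at five concentrations. GI50 is the concentration that inhibits growth by half.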 The source made the active and inactive calls. No stated cut-off is given here; in the data, active = GI50 up to about 1.1 µM and inactive = higher.

Assays:
Assay in all cases: growth of human tumour cells (NCI), 48 h
[1] = system: HOP-62
[2] = system: A498
[3] = system: ACHN
[4] = system: OVCAR-3
[5] = system: RPMI-8226
[6] = system: SNB-78
[7] = system: OVCAR-5
[8] = system: SK-MEL-5
[9] = system: SK-OV-3
[10] = system: IGROV-1
[11] = system: CAKI-1
[12] = system: SF-295
[13] = system: KM12
[14] = system: OVCAR-8
[15] = system: SW-620
[16] = system: SR
[17] = system: HL-60
[18] = system: NCI-H23
[19] = system: NCI-H460
[20] = system: SF-268
[21] = system: M14
[22] = system: SF-539
[23] = system: SN12C
[24] = system: RXF 631
[25] = system: LXFL 529
[26] = system: 786-0
[27] = system: HT-29
[28] = system: DMS-114
[29] = system: UACC-62
[30] = system: HCT-15
[31] = system: LOX IMVI
[32] = system: NCI-H226
[33] = system: EKVX
[34] = system: SK-MEL-2
[35] = system: Malme-3M
[36] = system: NCI-H522
[37] = system: DLD-1
[38] = system: M19-MEL
[39] = system: KM-20L2
[40] = system: SNB-19
[41] = system: U-251
[42] = system: UO-31
[43] = system: COLO 205
[44] = system: TK-10
[45] = system: OVCAR-4
[46] = system: CCRF-CEM
[47] = system: UACC-257
[48] = system: A549
[49] = system: HCT-116
[50] = system: SK-MEL-28
[51] = system: MOLT-4
[52] = system: K562
[53] = system: DMS-273
[54] = system: HCC 2998
[55] = system: XF498
[56] = system: SNB-75
[57] = system: RXF 393
[58] = system: HOP-92

CN(OC(=O)CC(=O)c1ccccc1)C(=O)Cc1ccccc1
GI50 [1]: > 100 µM (inactive)
GI50 [2]: > 100 µM (inactive)
GI50 [3]: > 100 µM (inactive)
GI50 [4]: > 100 µM (inactive)
GI50 [5]: 46.7 µM (inactive)
GI50 [6]: > 100 µM (inactive)
GI50 [7]: > 100 µM (inactive)
GI50 [8]: > 100 µM (inactive)
GI50 [9]: > 100 µM (inactive)
GI50 [10]: > 100 µM (inactive)
GI50 [11]: > 100 µM (inactive)
GI50 [12]: > 100 µM (inactive)
GI50 [13]: > 100 µM (inactive)
GI50 [14]: > 100 µM (inactive)
GI50 [15]: > 100 µM (inactive)
GI50 [16]: > 100 µM (inactive)
GI50 [17]: > 100 µM (inactive)
GI50 [18]: > 100 µM (inactive)
GI50 [19]: > 100 µM (inactive)
GI50 [20]: > 100 µM (inactive)
GI50 [21]: > 100 µM (inactive)
GI50 [22]: > 100 µM (inactive)
GI50 [23]: > 100 µM (inactive)
GI50 [24]: > 100 µM (inactive)
GI50 [25]: > 100 µM (inactive)
GI50 [26]: > 100 µM (inactive)
GI50 [27]: > 100 µM (inactive)
GI50 [28]: > 100 µM (inactive)
GI50 [29]: > 100 µM (inactive)
GI50 [30]: > 100 µM
GI50 [31]: > 100 µM (inactive)
GI50 [32]: > 100 µM (inactive)
GI50 [33]: > 100 µM (inactive)
GI50 [34]: > 100 µM (inactive)
GI50 [35]: > 100 µM (inactive)
GI50 [36]: > 100 µM (inactive)
GI50 [37]: > 100 µM (inactive)
GI50 [38]: > 100 µM (inactive)
GI50 [39]: > 100 µM (inactive)
GI50 [40]: > 100 µM (inactive)
GI50 [41]: > 100 µM (inactive)
GI50 [42]: > 100 µM (inactive)
GI50 [43]: > 100 µM (inactive)
GI50 [44]: > 100 µM (inactive)
GI50 [45]: > 100 µM (inactive)
GI50 [46]: > 100 µM (inactive)
GI50 [47]: > 100 µM (inactive)
GI50 [48]: > 100 µM (inactive)
GI50 [49]: > 100 µM (inactive)

COc1cccc2c(SCC(=O)Nc3ccccc3-c3ccccc3NC(=O)CSc3c4ccccc4nc4c(OC)cccc34)c3ccccc3nc12
GI50 [1]: > 100 µM (inactive)
GI50 [3]: > 100 µM (inactive)
GI50 [4]: > 100 µM (inactive)
GI50 [6]: > 100 µM (inactive)
GI50 [7]: > 100 µM (inactive)
GI50 [8]: > 100 µM (inactive)
GI50 [10]: 43.1 µM (inactive)
GI50 [12]: > 100 µM (inactive)
GI50 [13]: > 100 µM (inactive)
GI50 [14]: > 100 µM (inactive)
GI50 [16]: 76.9 µM (inactive)
GI50 [17]: 9.93 µM (inactive)
GI50 [50]: > 100 µM (inactive)
GI50 [51]: > 100 µM (inactive)
GI50 [18]: > 100 µM (inactive)
GI50 [19]: > 100 µM (inactive)
GI50 [20]: 45.4 µM (inactive)
GI50 [21]: 60.1 µM (inactive)
GI50 [22]: 60.5 µM (inactive)
GI50 [23]: > 100 µM (inactive)
GI50 [24]: 47.6 µM (inactive)
GI50 [26]: > 100 µM (inactive)
GI50 [27]: > 100 µM (inactive)
GI50 [28]: 29.1 µM (inactive)
GI50 [29]: 38.6 µM (inactive)
GI50 [30]: > 100 µM
GI50 [52]: 74.3 µM (inactive)
GI50 [53]: 71.3 µM (inactive)
GI50 [32]: > 100 µM (inactive)
GI50 [54]: > 100 µM (inactive)
GI50 [33]: 21.7 µM (inactive)
GI50 [34]: > 100 µM (inactive)
GI50 [37]: > 100 µM (inactive)
GI50 [39]: > 100 µM (inactive)
GI50 [55]: 76.6 µM (inactive)
GI50 [40]: > 100 µM (inactive)
GI50 [41]: > 100 µM (inactive)
GI50 [43]: > 100 µM (inactive)
GI50 [44]: > 100 µM (inactive)
GI50 [45]: > 100 µM (inactive)
GI50 [46]: > 100 µM (inactive)
GI50 [56]: 17.5 µM (inactive)
GI50 [57]: 57.9 µM (inactive)
GI50 [48]: > 100 µM (inactive)
GI50 [49]: > 100 µM (inactive)

Cc1cc(Cl)ccc1/N=C1/NC(=O)C(CC(=O)Nc2cccc(C)c2C)S1 (stereo not given)
GI50 [1]: 24 µM (inactive)
GI50 [2]: 16.9 µM (inactive)
GI50 [3]: 26 µM (inactive)
GI50 [4]: 31.2 µM (inactive)
GI50 [5]: 19.7 µM (inactive)
GI50 [6]: 28.5 µM (inactive)
GI50 [7]: 31.7 µM (inactive)
GI50 [8]: 20.4 µM (inactive)
GI50 [9]: 30.4 µM (inactive)
GI50 [10]: 34.8 µM (inactive)
GI50 [11]: 23.6 µM (inactive)
GI50 [12]: 28 µM (inactive)
GI50 [13]: 32.4 µM (inactive)
GI50 [14]: 26.5 µM (inactive)
GI50 [15]: 35.1 µM (inactive)
GI50 [58]: 1.41 µM (inactive)
GI50 [50]: 30.2 µM (inactive)
GI50 [51]: 24.5 µM (inactive)
GI50 [18]: 18.2 µM (inactive)
GI50 [19]: 31.3 µM (inactive)
GI50 [20]: 26 µM (inactive)
GI50 [21]: 18.1 µM (inactive)
GI50 [22]: 21.5 µM (inactive)
GI50 [23]: 25.9 µM (inactive)
GI50 [24]: 26.4 µM (inactive)
GI50 [26]: 20.8 µM (inactive)
GI50 [27]: 37.8 µM (inactive)
GI50 [28]: 22.8 µM (inactive)
GI50 [29]: 25.9 µM (inactive)
GI50 [30]: 28.4 µM
GI50 [31]: 22.3 µM (inactive)
GI50 [52]: 24.8 µM (inactive)
GI50 [53]: 26.1 µM (inactive)
GI50 [54]: 26.2 µM (inactive)
GI50 [33]: 37.8 µM (inactive)
GI50 [34]: 20.8 µM (inactive)
GI50 [35]: 24.2 µM (inactive)
GI50 [37]: 33.4 µM (inactive)
GI50 [38]: 35.1 µM (inactive)
GI50 [39]: 29.9 µM (inactive)
GI50 [55]: 10.7 µM (inactive)
GI50 [40]: 26.8 µM (inactive)
GI50 [41]: 26.2 µM (inactive)
GI50 [42]: 21.6 µM (inactive)
GI50 [43]: 24.3 µM (inactive)
GI50 [44]: 39.3 µM (inactive)
GI50 [45]: 26.7 µM (inactive)
GI50 [46]: 22.2 µM (inactive)
GI50 [56]: 19.9 µM (inactive)
GI50 [47]: 29.5 µM (inactive)
GI50 [48]: 32 µM (inactive)
